Tests used:
[1] = system: multiple sclerosis (MS) in mice; conditions: cited from earlier work
DJ-1 = conditions: astrocytes and neurons; cited from earlier work
BDNF and NT-3 = conditions: brain cells; cited from earlier work
[2] = system: Huntington transgenic (N171-82Q) mice; test: Locomotor activities after glyceryl tribenzoate nebulization in Huntington transgenic mice; assay type: in vivo; conditions: nebulization about 2 and about 5 mg/kg body wt/day, six weeks
From the text: Since many features of Huntington's disease are modeled in N171-82Q transgenic mice, the effects of glyceryl tribenzoate nebulization on locomotor activities were examined in N171-82Q mice. A Buxco® Inhalation Tower All-In-One Controller was used to nebulize the glyceryl tribenzoate. A whole-body chamber was fitted with aeroneb ultrasonic nebulizers supplied with air from a Buxco® bias flow pump. Huntington transgenic (N171-82Q) mice were allowed to nebulize glyceryl tribenzoate at doses of about 2 and about 5 mg/kg body wt/day (solubilized in a volume of 100 μl saline/mouse) for 3 min. Briefly, three-month old transgenic mice were treated with different doses (about 2 and about 5 mg/kg body wt/d) of glyceryl tribenzoate solubilized in about 100 μl saline via nebulization. Control Huntington's disease mice received only 100 μl saline as vehicle. After six weeks of treatment, locomotor activities were monitored. Data are mean+SEM of three mice per group.
Velocity refers to the speed at which the mouse walks. Total distance refers to the distance covered by the mouse in a certain period of time. Moving frequency refers to how much a mouse moves around in a given time period and cumulative duration refers to total duration spent at the center.

[3] = system: huntingtin (HTT) inclusion bodies; test: Huntingtin inclusion bodies in striatum and cortex by immunohistochemistry and Western blotting; assay type: in vivo; conditions: N171-82Q Tg mice, about 50 mg/kg body wt/day via gavage, two months
Experimental: Deposition of huntingtin (HTT) inclusion bodies is a pathological hallmark of Huntington's disease. This pathology is based on an expansion of CAG repeats in exon 1 of the huntingtin gene on chromosome 4 that generates a mutant huntingtin protein leading to abnormal HTT aggregates.
Briefly, three-month old transgenic mice were treated with GTB (about 50 mg/kg body wt/day) via gavage. Control Huntington's disease mice received only 100 μl 0.5% methylcellulose as vehicle. After two months of treatment, huntingtin inclusion bodies (HTT) were monitored in brain sections (striatal—FIG. 2A, cortical—FIG. 2B) by immunohistochemistry. Further, HTT positive (“(+)ve”) cells were counted in two sections (striatal—FIG. 2C, cortical—FIG. 2D) of each of six mice per group.
FIG. 2A and 2B show the results from immunohistochemistry, which indicate that administration of GTB reduces the number of HTT inclusion bodies in striatum and cortex. FIGS. 2C and 2D show the number of HTT (+ve) cells in striatum and cortex of GTB treated and untreated mice and indicate a reduction in the number of HTT in treated mice.
This was also confirmed by Western blotting. By Western blotting, the inventor could detect 348 kDa band of aggregated HTT in the cortex that was inhibited by oral GTB treatment (FIG. 2E-2F).

microglial activation [4] = test: Microglial activation in striatum (Iba-1 DAB staining, double-label immunofluorescence, Western blot); assay type: in vivo; conditions: N171-82Q Tg mice, about 50 mg/kg body wt/day via gavage, two months
Experimental: (§1) Three-month old transgenic mice were treated with GTB (about 50 mg/kg body wt/day) via gavage. Control Huntington's disease mice received only 100 μl 0.5% methylcellulose as vehicle. After two months of treatment, microglial activation was monitored in striatal sections by DAB staining (FIG. 3A) and double-label immunofluorescence (FIG. 3B). The results shown in FIGS. 3A-3G represent an analysis of six mice per group.
FIG. 3D depicts the Mean Fluorescence Intensity (MFI) of iNOS in control mice (nTg), untreated N171-82Q mice and GTB treated N171-82Q mice. FIG. 3E is the western blot for Iba-1 and iNOS and FIGS. 3F and 3G are a quantitative analysis of the western blot shown in FIG. 3E.
(§2) As evident from Iba-1 immunostaining as well as Iba-1 Western blot, the inventor found microgliosis in the striatum (FIG. 3) and cortex (FIG. 4) of untreated N171-82Q Tg mice. Activated microglia also express inducible nitric oxide synthase (iNOS).

microglial activation [5] = test: Microglial activation in cortex (Iba-1 DAB staining, double-label immunofluorescence, Western blot); assay type: in vivo; conditions: N171-82Q Tg mice, about 50 mg/kg body wt/day via gavage, two months
Experimental: as §1, with “transgenic (Tg)” for “transgenic”, “glyceryl tribenzoate” for “GTB”, “cortical” for “striatal”, “4A)” for “3A)”, “4B).” for “3B).”, “4A-4B” for “3A-3G”
FIG. 4D depicts the Mean Fluorescence Intensity (MFI) of iNOS in control mice (nTg), untreated N171-82Q mice and GTB treated N171-82Q mice. FIG. 4E is the western blot for Iba-1 and iNOS and FIGS. 4F and 4G are a quantitative analysis of the western blot shown in FIG. 4E.
as §2

astroglial activation = test: Astroglial activation in striatum and cortex (GFAP DAB staining); assay type: in vivo; conditions: N171-82Q Tg mice, about 50 mg/kg body wt/day via gavage, two months
Experimental: Three-month old transgenic (Tg) mice were treated with glyceryl tribenzoate (about 50 mg/kg body wt/day) via gavage. Control Huntington's disease mice received only 100 μl 0.5% methylcellulose as vehicle. After two months of treatment, astroglial activation was monitored in striatal (FIG. 5A) and cortical (FIG. 5B) sections by DAB staining. Further, the number of glial fibrillary acidic protein (GFAP) (+)ve cells were counted in two striatal (FIG. 5C) and cortical (FIG. 5D) sections of each of six mice per group.
Since astroglia are the major cell type in the CNS, any contribution from this cell type would be significant. Therefore, the inventor also monitored astrogliosis in the CNS of N171-82Q Tg mice.

[6] = system: interleukin-6 (IL-6) and IL-1β; test: Serum proinflammatory cytokines by sandwich ELISA; assay type: in vivo; conditions: N171-82Q mice, 50 mg/kg body wt/d via gavage, 1 month
Experimental: Three-month old Tg mice (n=3 in each group) were treated with GTB (50 mg/kg body wt/d) mixed with 100 μl 0.5% methylcellulose via gavage. Therefore, control HD mice received only 100 μl 0.5% methylcellulose as vehicle. After 1 month of treatment, levels of interleukin-6 (IL-6) and IL-1β were measured in serum by sandwich ELISA.
Results are mean+SEM of three mice per group. *p<0.05; ***p<0.001.

| Structure (SMILES) | disease process of multiple sclerosis (MS) [1] | DJ-1 protein (DJ-1) | production of BDNF (BDNF and NT-3) | production of NT-3 (BDNF and NT-3) | velocity ([2]; FIG. 1A) | total distance ([2]; FIG. 1B) | moving frequency ([2]; FIG. 1C) | cumulative duration ([2]; FIG. 1D) | rotorod performance ([2]; FIG. 1E) | 348 kDa band of aggregated HTT in the cortex ([3]; Western blotting) | HTT inclusion in the cortex ([3]; immunohistochemistry) | HTT inclusion in the striatum ([3]; immunohistochemistry) | expression of iNOS in striatum (microglial activation [4]) | microgliosis in striatum (microglial activation [4]; Iba-1) | expression of iNOS in cortex (microglial activation [5]) | microgliosis in cortex (microglial activation [5]; Iba-1) | astrogliosis in the CNS (GFAP, striatum and cortex) (astroglial activation) | level of IL-1β in serum [6] | level of IL-6 in serum [6] |
| --- | --- | --- | --- | --- | --- | --- | --- | --- | --- | --- | --- | --- | --- | --- | --- | --- | --- | --- | --- |
| O=C([O-])c1ccccc1.[Na+] [sodium benzoate] | suppresses | up-regulates | increases | increases | – | – | – | – | – | – | – | – | – | – | – | – | – | – | – |
| O=C(OCC(COC(=O)c1ccccc1)OC(=O)c1ccccc1)c1ccccc1 [glyceryl tribenzoate, 2,3-dibenzoyloxypropyl benzoate] | – | – | – | – | markedly improved | markedly improved | markedly improved | markedly improved | markedly improved | inhibited | significant reduction | significant reduction | significantly inhibited | significantly inhibited | significantly inhibited | significantly inhibited | reduced | significantly decreases | significantly decreases |
